Experimental data: US9861615B2, “Methods and pharmaceutical compositions for the treatment of beta-thalassemias” (INSERM (INSTITUT NATIONAL DE LA SANTE ET DE LA RECHERCHE …, priority 2013, dated 2018)

Columns and labels:
[1] = tested on: HSP70 nuclear localization in beta-thalassemia CD36+ cells; experiment: HSP70 localization and GATA1 fluorescence in beta-thalassemia CD36+ cells; format: cell-based, human
Protocol: FIG. 8. CD36+ cells from the same experiment as FIG. […] Percentages of cells containing HSP70 located in the nucleus (black) or in the cytoplasm (grey), gated on the total population of cells analyzed, for the different treatment conditions: KPT 0 (a), KPT 100 nM (b) and KPT 1000 nM (c). d) HSP70 cytoplasm/nuclear ratio for the three treatment conditions e) Mean intensity and standard deviation for GATA1 transcription factor fluorescence.
(§1) Data from FIG. 6 and FIG. 7 are from two different experiments on CD36+ cells from a beta-thalassemia patient. Data from FIG. 8 have been performed with cells from FIG. 7 experiment. Beta-thalassemia erythroblasts were generated in vitro from peripheral blood circulating CD34+ cells from an adult patient with beta-thalassemia major (β^0-TM). This study was performed according to the Helsinky Declaration with approval from the ethics committee of our institution.
Amnis Technology enables to analyse fluorescence localization in a large number of cells beforehand labelled. Here we show the percentage of cells positive for HSP70 labelling in the nucleus, or in the cytoplasm, for conditions KPT 0, 100 nM and 1000 nM (FIG. 8). We can observe that the fraction of cells positive for HSP70 in the nucleus increases in KPT 100 nM and 1000 nM conditions (FIGS. 8b and 8c), compared to KPT 0 (FIG. 8a).

[2] = tested on: HSP70 nuclear retention in CD36+D6 from cord blood; experiment: HSP70 nuclear retention in cord blood CD36+D6 under EPO starvation; format: cell-based, human; settings: after 20 h of treatment
Protocol: (§2) Umbilical cord blood units from normal full-term deliveries were obtained, after informed mother's consent, from the Obstetrics Unit of Hôpital Necker-Enfants Malades. CD36+ erythroid progenitors, generated from 7 days IL-6+IL3+SCF− cultured CD34 progenitors isolated from cord blood (Miltenyi CD34 Progenitor Cell Isolation Kit), were cultured in the presence of IL3+SCF+Epo in IMDM (Gibco cell culture) supplemented with 15% BIT 9500 (Stem Cell Technologies).
5·10^4 cells were spin on slides, acetone fixated, hydrated with cold 1×PBS 1% BSA for 30 minutes, treated with formaldehyde for 15 min (Sigma), then with methanol (Prolabo) for 10 minutes at room temperature. Cells were then permeabilized with 1×PBS 0.2% triton X100 (Sigma) for 10 min at 4° C., washed and incubated in 10% BSA for 30 minutes. They were then sequentially incubated with antibodies diluted in 1×PBS 1% BSA 0.1% tween (Sigma). Nuclei were stained with DAPI and slides were examined with a confocal laser microscope (LSM 700 Carl Zeiss).

[3] = tested on: CD36+ erythroid progenitors from cord blood; experiment: Toxicity of KPT on CD36+ erythroid progenitors, normal EPO; format: cell-based, human; settings: day 6 (D6) of culture; 33 nM, 100 nM, 333 nM and 1000 nM; normal concentrations of EPO; until 20 h of treatment
Protocol: FIG. 3A. KPT is not toxic for CD36+ erythroid progenitors from cord blood at day 6 (D6) of culture, when diluted at concentrations 33 nM, 100 nM, 333 nM and 1000 nM in CD36+ culture media, with normal concentrations of erythropoietin (EPO), until 20 h of treatment.
as §2

[4] = tested on: CD36+D6 erythroid progenitors from cord blood; experiment: Cell death of CD36+D6 cells during EPO starvation; format: cell-based, human; settings: EPO starvation during 20 h (80% of cell death without KPT)
Protocol: FIG. 3B. EPO starvation during 20 h results in 80% of cell death. Treatment of CD36+D6 with KPT at 100 nM, 333 nM during EPO starvation decreases cell death, of 49% and 39% respectively, compared to the absence of KPT treatment.
as §2

[5] = tested on: CD36+ cells derived from circulating CD34+ cells from Beta thalassemia major patient; experiment: Proliferation, cell death and terminal maturation of beta-thalassemia CD36+ cells; format: cell-based, human
Protocol: FIG. 6. CD36+ cells, derived from circulating CD34+ cells from Beta thalassemia major patient, were treated or not with KPT molecule (KPT 0=DMSO, KPT 100=100 nM, KPT 1000=1000 nM), and analysed at 24 h, 48 h, 72 h and 96 h of treatment. Day 0 of treatment corresponds to day 5 of CD36+ culture. a) Proliferation of CD36+ cells between 24 h and 96 h, for the different conditions of KPT treatment. b) Cell death of CD36+ cells between 48 h and 96 h, for the different conditions of KPT treatment. c) Flow cytometry analysis of Mean fluorescence intensity (MFI) for Band 3 protein, in CD36+ cells, in the different conditions of KPT treatment. d) MGG count of immature, polychromatophiles and acidophiles+reticulocytes at 96 h of treatment, for the different conditions of KPT treatment and e) corresponding maturation indexes.
FIG. 7: CD36+ cells, derived from circulating CD34+ cells from Beta thalassemia major patient, were treated or not with KPT molecule (KPT 0=DMSO, KPT 100=100 nM, KPT 1000=1000 nM), and analysed at 24 h, 48 h, and 72 h of treatment. Day 0 of treatment corresponds to day 6 of CD36+ culture. a) Proliferation of CD36+ cells between 24 h and 72 h, for the different conditions of KPT treatment. b) Cell death of CD36+ cells between 24 h and 72 h, for the different conditions of KPT treatment. c) Flow cytometry analysis of MFI for Band 3 protein, in CD36+ cells, in the different conditions of KPT treatment. d) Flow cytometry analysis of the number of small, alive, CD36+ cells positive for fœtal haemoglobin in the different conditions of KPT treatment. e) MGG count of immature, polychromatophiles and acidophiles+reticulocytes at 48 h of treatment, for the different conditions KPT 0 and KPT 100 nM and f) corresponding maturation indexes.
as §1
In vitro, maturation is arrested at the polychromatophilic stage in beta-thalassemia erythroid progenitors. To quantify the maturation arrest in beta-thalassemia cells, we use an index of terminal maturation as the number (acidophilic cells+reticulocytes per slide)*100 divided by the number of polychromatophilic cells per slide (Arlet J b et al. Nature oct 2014).

XPO1 = XPO1 (Homo sapiens, UniProt O14980); settings: cited from earlier work
Sequence of XPO1 (O14980 whole entry): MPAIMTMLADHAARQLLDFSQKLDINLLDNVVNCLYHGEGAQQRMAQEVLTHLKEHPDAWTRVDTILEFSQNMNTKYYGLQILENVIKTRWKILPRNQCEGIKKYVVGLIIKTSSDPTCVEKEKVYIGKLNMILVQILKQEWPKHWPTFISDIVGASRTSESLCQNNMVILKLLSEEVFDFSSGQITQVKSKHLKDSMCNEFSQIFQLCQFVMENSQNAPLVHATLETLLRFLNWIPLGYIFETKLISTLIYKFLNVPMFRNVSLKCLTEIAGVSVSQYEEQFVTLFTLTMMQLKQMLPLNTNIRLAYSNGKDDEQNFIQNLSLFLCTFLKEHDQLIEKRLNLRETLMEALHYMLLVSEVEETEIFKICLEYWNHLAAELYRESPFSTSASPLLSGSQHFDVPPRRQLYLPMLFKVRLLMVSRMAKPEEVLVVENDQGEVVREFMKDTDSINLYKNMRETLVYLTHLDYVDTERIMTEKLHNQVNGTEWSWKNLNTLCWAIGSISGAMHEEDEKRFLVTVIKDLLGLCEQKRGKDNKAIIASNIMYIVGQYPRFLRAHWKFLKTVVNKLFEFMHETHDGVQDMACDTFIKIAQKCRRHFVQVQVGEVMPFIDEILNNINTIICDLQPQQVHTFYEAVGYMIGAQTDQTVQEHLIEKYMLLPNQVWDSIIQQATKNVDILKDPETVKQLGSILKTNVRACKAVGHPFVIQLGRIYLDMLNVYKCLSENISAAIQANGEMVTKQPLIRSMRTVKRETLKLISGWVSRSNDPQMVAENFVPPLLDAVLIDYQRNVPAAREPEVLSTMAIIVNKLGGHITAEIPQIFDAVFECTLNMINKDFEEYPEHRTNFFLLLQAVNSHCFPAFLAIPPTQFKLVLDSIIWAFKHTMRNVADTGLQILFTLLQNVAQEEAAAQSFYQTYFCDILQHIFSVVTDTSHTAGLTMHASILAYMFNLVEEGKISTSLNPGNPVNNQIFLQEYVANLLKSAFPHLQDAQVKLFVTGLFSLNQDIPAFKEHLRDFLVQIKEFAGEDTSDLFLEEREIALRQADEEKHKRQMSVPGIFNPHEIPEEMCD

SMILES	HSP70 cyto/nuclear fraction ([1]; KPT 100 nM and 1000 nM compared to KPT 0, 24 h of treatment)	fraction of cells positive for HSP70 in the nucleus ([1]; KPT 100 nM and 1000 nM compared to KPT 0, 24 h of treatment, Amnis)	mean of fluorescence intensity of GATA1 labelling ([1]; KPT treatment conditions of FIG. 8, 24 h of treatment)	HSP70 nuclear localization ([1]; beta-thalassemia CD36+D8 cells, 72 h of treatment at 100 nM, compared to non treated cells)	HSP70 nuclear retention [2]	toxicity for CD36+ erythroid progenitors [3]	decrease of cell death compared to the absence of KPT treatment ([4]; KPT 100 nM) [%]	decrease of cell death compared to the absence of KPT treatment ([4]; KPT 333 nM) [%]	proportion of HbF positive among the population of small alive cells ([5]; 72 hours of treatment with 1000 nM, compared to KPT 0 and KPT 100 nM)	maturation index (acidophilic cells+reticulocytes)*100 / polychromatophilic cells ([5]; KPT 100 nM and 1000 nM compared to control condition KPT 0)	mean fluorescence intensity (MFI) of Band 3 protein labelling ([5]; KPT 100 nM or 1000 nM, at 96 h of treatment (FIG. 6c) and at 72 h of treatment (FIG. 7c), flow cytometry)	cytotoxicity (cell death of CD36+ cells) ([5]; KPT 1000 nM compared to KPT 0 and KPT 100 nM)	proliferation of CD36+ cells ([5]; KPT 1000 nM compared to KPT 0 and KPT 100 nM, only in the experiment with high proliferation rate in control condition)	HSP70 nuclear retention in erythroid precursor cells (XPO1)
FC(F)(F)c1cc(-c2ncn(/C=C\c3nnco3)n2)cc(C(F)(F)F)c1 [KPT]	decrease	increases	increase	induces HSP70 nuclear localization	induces HSP70 nuclear retention	not toxic	49	39	higher	increases	increases	little cytotoxicity	decreased proliferation	
CCC(=C/[C@H](C)C/C=C/C(C)=C/[C@@H](C)C(=O)[C@@H](C)[C@H](O)[C@@H](C)C/C(C)=C/C(=O)O)/C=C/[C@@H]1OC(=O)C=C[C@@H]1C [Leptomycin B]														induces HSP70 nuclear retention
